Test results taken from US7785828B1 (priority 2003, dated 2010).

Columns and labels:
Type in all cases: cell-based
Septoria tritici = system: Septoria tritici
Fusarium graminearum = system: Fusarium graminearum
Mycosphaerella fijiensis = system: Mycosphaerella fijiensis

Row | Sequence | Antifungal activity, Septoria tritici (improvement compared to DmAMP1) (Septoria tritici) | Antifungal activity, Fusarium graminearum (improvement compared to DmAMP1) (Fusarium graminearum) | Antifungal activity, Mycosphaerella fijiensis (improvement compared to DmAMP1) (Mycosphaerella fijiensis)
1 | NLCEKASKTWTGNCGNTKHCDTQCKSWEGAKHGACHVRSGKHKCFCYFNC (Defensin like) [L9-29] | ++ (key: + indicating 1- to 5-fold improvement compared to DmAMP1; ++ indicating >5- to 10-fold improvement; +++ indicating >10-fold improvement) | +++ (key: + indicating 1- to 5-fold improvement compared to DmAMP1; ++ indicating >5- to 10-fold improvement; +++ indicating >10-fold improvement) | ++ (key: + indicating 1- to 5-fold improvement compared to DmAMP1; ++ indicating >5- to 10-fold improvement; +++ indicating >10-fold improvement)
2 | NLCERASKTWSGNCGNTKHCDNQCKSWEGAAHGACHVRNGKHKCFCYFNC (Defensin like) [L6-61] | ++ (key: + indicating 1- to 5-fold improvement compared to DmAMP1; ++ indicating >5- to 10-fold improvement; +++ indicating >10-fold improvement) | +++ (key: + indicating 1- to 5-fold improvement compared to DmAMP1; ++ indicating >5- to 10-fold improvement; +++ indicating >10-fold improvement) | + (key: + indicating 1- to 5-fold improvement compared to DmAMP1; ++ indicating >5- to 10-fold improvement; +++ indicating >10-fold improvement)
3 | NLCEKASKTWSGNCGNTKHCDTQCKSWEGAKHGACHVRNGKHKCFCYFNC (Defensin like) [L5-13] | +++ (key: + indicating 1- to 5-fold improvement compared to DmAMP1; ++ indicating >5- to 10-fold improvement; +++ indicating >10-fold improvement) | +++ (key: + indicating 1- to 5-fold improvement compared to DmAMP1; ++ indicating >5- to 10-fold improvement; +++ indicating >10-fold improvement) | + (key: + indicating 1- to 5-fold improvement compared to DmAMP1; ++ indicating >5- to 10-fold improvement; +++ indicating >10-fold improvement)
4 | NLCEKASKTWSGNCGNTKHCDTQCRNWEGAKHGACHVRNGKHKCFCYFNC (Defensin like) [L6-13] | +++ (key: + indicating 1- to 5-fold improvement compared to DmAMP1; ++ indicating >5- to 10-fold improvement; +++ indicating >10-fold improvement) | +++ (key: + indicating 1- to 5-fold improvement compared to DmAMP1; ++ indicating >5- to 10-fold improvement; +++ indicating >10-fold improvement) | ++ (key: + indicating 1- to 5-fold improvement compared to DmAMP1; ++ indicating >5- to 10-fold improvement; +++ indicating >10-fold improvement)
5 | NLCERASKTWTGNCGNTKHCDNQCKSWEGAAHGACHVRNGKHKCFCYFNC (Defensin like) [L5-24] | ++ (key: + indicating 1- to 5-fold improvement compared to DmAMP1; ++ indicating >5- to 10-fold improvement; +++ indicating >10-fold improvement) | +++ (key: + indicating 1- to 5-fold improvement compared to DmAMP1; ++ indicating >5- to 10-fold improvement; +++ indicating >10-fold improvement) | + (key: + indicating 1- to 5-fold improvement compared to DmAMP1; ++ indicating >5- to 10-fold improvement; +++ indicating >10-fold improvement)
6 | DGVKLCEKASQTWSGHCGNTKHCDNQCKNWEGAKHGACHKRNGKWKCFCYFNC [L7-350] (Defensin like) | + (key: + indicating 1- to 5-fold improvement compared to DmAMP1; ++ indicating >5- to 10-fold improvement; +++ indicating >10-fold improvement) | + (key: + indicating 1- to 5-fold improvement compared to DmAMP1; ++ indicating >5- to 10-fold improvement; +++ indicating >10-fold improvement) | + (key: + indicating 1- to 5-fold improvement compared to DmAMP1; ++ indicating >5- to 10-fold improvement; +++ indicating >10-fold improvement)
7 | NLCERASKTWSGNCGNTKHCDTQCRSWEGAAHGACHKRNGKWKCFCYFNC (Defensin like) [L9-14] | + (key: + indicating 1- to 5-fold improvement compared to DmAMP1; ++ indicating >5- to 10-fold improvement; +++ indicating >10-fold improvement) | ++ (key: + indicating 1- to 5-fold improvement compared to DmAMP1; ++ indicating >5- to 10-fold improvement; +++ indicating >10-fold improvement) | + (key: + indicating 1- to 5-fold improvement compared to DmAMP1; ++ indicating >5- to 10-fold improvement; +++ indicating >10-fold improvement)
8 | NLCEKASKTWTGNCGNTKHCDTQCKSWEGAKHGACHKRNGKWKCFCYFNC (Defensin like) [L5-22] | ++ (key: + indicating 1- to 5-fold improvement compared to DmAMP1; ++ indicating >5- to 10-fold improvement; +++ indicating >10-fold improvement) | ++ (key: + indicating 1- to 5-fold improvement compared to DmAMP1; ++ indicating >5- to 10-fold improvement; +++ indicating >10-fold improvement) | + (key: + indicating 1- to 5-fold improvement compared to DmAMP1; ++ indicating >5- to 10-fold improvement; +++ indicating >10-fold improvement)
9 | NLCERASKTWSGNCGNTKHCDTQCRNWEGAAHGACHKRNGKWKCFCYFNC (Defensin like) [L6-12] | + (key: + indicating 1- to 5-fold improvement compared to DmAMP1; ++ indicating >5- to 10-fold improvement; +++ indicating >10-fold improvement) | +++ (key: + indicating 1- to 5-fold improvement compared to DmAMP1; ++ indicating >5- to 10-fold improvement; +++ indicating >10-fold improvement) | + (key: + indicating 1- to 5-fold improvement compared to DmAMP1; ++ indicating >5- to 10-fold improvement; +++ indicating >10-fold improvement)
10 | NLCERASKTWSGNCGNTKHCDNQCRSWEGAKHGACHVRSGKHKCFCYFNC (Defensin like) [L9-16] | ++ (key: + indicating 1- to 5-fold improvement compared to DmAMP1; ++ indicating >5- to 10-fold improvement; +++ indicating >10-fold improvement) | +++ (key: + indicating 1- to 5-fold improvement compared to DmAMP1; ++ indicating >5- to 10-fold improvement; +++ indicating >10-fold improvement) | + (key: + indicating 1- to 5-fold improvement compared to DmAMP1; ++ indicating >5- to 10-fold improvement; +++ indicating >10-fold improvement)
11 | NLCERASKTWSGNCGNTKHCDTQCKNWEGAAHGACHKRNGKWKCFCYFNC (Defensin like) [L9-13] | + (key: + indicating 1- to 5-fold improvement compared to DmAMP1; ++ indicating >5- to 10-fold improvement; +++ indicating >10-fold improvement) | ++ (key: + indicating 1- to 5-fold improvement compared to DmAMP1; ++ indicating >5- to 10-fold improvement; +++ indicating >10-fold improvement) | + (key: + indicating 1- to 5-fold improvement compared to DmAMP1; ++ indicating >5- to 10-fold improvement; +++ indicating >10-fold improvement)
12 | NLCEKASKTWSGNCGNTKHCDNQCRSWEGAKHGACHVRNGKHKCFCYFNC (Defensin like) [L9-23] | ++ (key: + indicating 1- to 5-fold improvement compared to DmAMP1; ++ indicating >5- to 10-fold improvement; +++ indicating >10-fold improvement) | +++ (key: + indicating 1- to 5-fold improvement compared to DmAMP1; ++ indicating >5- to 10-fold improvement; +++ indicating >10-fold improvement) | ++ (key: + indicating 1- to 5-fold improvement compared to DmAMP1; ++ indicating >5- to 10-fold improvement; +++ indicating >10-fold improvement)
13 | NLCERASKTWTGNCGNTKHCDTQCRSWEGAAHGACHVRSGKHKCFCYFNC (Defensin like) [L5-23] | + (key: + indicating 1- to 5-fold improvement compared to DmAMP1; ++ indicating >5- to 10-fold improvement; +++ indicating >10-fold improvement) | + (key: + indicating 1- to 5-fold improvement compared to DmAMP1; ++ indicating >5- to 10-fold improvement; +++ indicating >10-fold improvement) | + (key: + indicating 1- to 5-fold improvement compared to DmAMP1; ++ indicating >5- to 10-fold improvement; +++ indicating >10-fold improvement)
14 | NLCEKASKTWTGNCGNTKHCDNQCRNWEGAAHGACHKRSGKWKCFCYFNC (Defensin like) [L9-36] | + (key: + indicating 1- to 5-fold improvement compared to DmAMP1; ++ indicating >5- to 10-fold improvement; +++ indicating >10-fold improvement) | + (key: + indicating 1- to 5-fold improvement compared to DmAMP1; ++ indicating >5- to 10-fold improvement; +++ indicating >10-fold improvement) | + (key: + indicating 1- to 5-fold improvement compared to DmAMP1; ++ indicating >5- to 10-fold improvement; +++ indicating >10-fold improvement)
15 | NLCERASKTWTGNCGNTKHCDNQCRNWEGAAHGACHVRSGKHKCFCYFNC (Defensin like) [L6-85] | + (key: + indicating 1- to 5-fold improvement compared to DmAMP1; ++ indicating >5- to 10-fold improvement; +++ indicating >10-fold improvement) | +++ (key: + indicating 1- to 5-fold improvement compared to DmAMP1; ++ indicating >5- to 10-fold improvement; +++ indicating >10-fold improvement) | + (key: + indicating 1- to 5-fold improvement compared to DmAMP1; ++ indicating >5- to 10-fold improvement; +++ indicating >10-fold improvement)
16 | NLCERASKTWTGNCGNTKHCDNQCKSWEGAAHGACHVRSGKHKCFCYFNC (Defensin like) [L6-39] | ++ (key: + indicating 1- to 5-fold improvement compared to DmAMP1; ++ indicating >5- to 10-fold improvement; +++ indicating >10-fold improvement) | +++ (key: + indicating 1- to 5-fold improvement compared to DmAMP1; ++ indicating >5- to 10-fold improvement; +++ indicating >10-fold improvement) | + (key: + indicating 1- to 5-fold improvement compared to DmAMP1; ++ indicating >5- to 10-fold improvement; +++ indicating >10-fold improvement)
